Measurements reported in PubChem BioAssay AID1259407 (Chemical Carcinogenesis Research Information System (CCRIS), 2018).
Calls of active or inactive are those of the source. No rule for the calls is given here.

System: CCRIS mutagenicity, Ames/micronucleus/aberration tests
Experiment: CCRIS mutagenicity studies
[1] = Test System: AMES SALMONELLA TYPHIMURIUM, Strain/Indicator: TA98, Metabolic Activation: NONE, Method: PREINCUBATION
[2] = Test System: AMES SALMONELLA TYPHIMURIUM, Strain/Indicator: TA98, Metabolic Activation: NONE, Method: STANDARD PLATE
[3] = Test System: AMES SALMONELLA TYPHIMURIUM, Strain/Indicator: TA100, Metabolic Activation: NONE, Method: PREINCUBATION
[4] = Test System: AMES SALMONELLA TYPHIMURIUM, Strain/Indicator: TA100, Metabolic Activation: NONE, Method: STANDARD PLATE
[5] = Test System: AMES SALMONELLA TYPHIMURIUM, Strain/Indicator: TA100, Metabolic Activation: RAT, LIVER, S-9, AROCLOR 1254, Method: PREINCUBATION

Measured: mutagenic call

O=[N+]([O-])c1ccc2c(ccc3ccccc32)c1
active: Test System: AMES SALMONELLA TYPHIMURIUM, Strain/Indicator: TA98(1,8-DNP6), Metabolic Activation: NONE, Method: STANDARD PLATE active; positive | Test System: AMES SALMONELLA TYPHIMURIUM, Strain/Indicator: TA98(NR), Metabolic Activation: NONE, Method: STANDARD PLATE active; positive | [1] active; positive | [2] active; positive | Test System: AMES SALMONELLA TYPHIMURIUM, Strain/Indicator: TA98, Metabolic Activation: RAT, LIVER, S-9, PCB (10%), Method: PREINCUBATION active; positive | Test System: AMES SALMONELLA TYPHIMURIUM, Strain/Indicator: TA7001, Metabolic Activation: NONE, Method: PREINCUBATION active; positive | Test System: AMES SALMONELLA TYPHIMURIUM, Strain/Indicator: TA7002, Metabolic Activation: NONE, Method: PREINCUBATION active; positive | Test System: AMES SALMONELLA TYPHIMURIUM, Strain/Indicator: TA7003, Metabolic Activation: NONE, Method: PREINCUBATION active; positive | Test System: AMES SALMONELLA TYPHIMURIUM, Strain/Indicator: TA7004, Metabolic Activation: NONE, Method: PREINCUBATION active; positive | Test System: AMES SALMONELLA TYPHIMURIUM, Strain/Indicator: TA7005, Metabolic Activation: NONE, Method: PREINCUBATION active; positive | Test System: AMES SALMONELLA TYPHIMURIUM, Strain/Indicator: TA7006, Metabolic Activation: NONE, Method: PREINCUBATION active; positive

Oc1ccccc1-c1ccccc1
inactive: Test System: AMES SALMONELLA TYPHIMURIUM, Strain/Indicator: TA98, Metabolic Activation: HAMSTER, LIVER, S-9, AROCLOR 1254 (10%), Method: STANDARD PLATE inactive; negative | Test System: AMES SALMONELLA TYPHIMURIUM, Strain/Indicator: TA98, Metabolic Activation: HAMSTER, LIVER, S-9, AROCLOR 1254, Method: PREINCUBATION inactive; negative | Test System: AMES SALMONELLA TYPHIMURIUM, Strain/Indicator: TA98, Metabolic Activation: NONE, Method: HOST-MEDIATED inactive; negative | [1] inactive; negative | [2] inactive; negative | Test System: AMES SALMONELLA TYPHIMURIUM, Strain/Indicator: TA98, Metabolic Activation: RAT, LIVER, S-9, AROCLOR 1254 (10%), Method: STANDARD PLATE inactive; negative | Test System: AMES SALMONELLA TYPHIMURIUM, Strain/Indicator: TA98, Metabolic Activation: RAT, LIVER, S-9, AROCLOR 1254, Method: PREINCUBATION inactive; negative | Test System: AMES SALMONELLA TYPHIMURIUM, Strain/Indicator: TA100, Metabolic Activation: HAMSTER, LIVER, S-9, AROCLOR 1254 (10%), Method: STANDARD PLATE inactive; negative | Test System: AMES SALMONELLA TYPHIMURIUM, Strain/Indicator: TA100, Metabolic Activation: HAMSTER, LIVER, S-9, AROCLOR 1254, Method: PREINCUBATION inactive; negative | Test System: AMES SALMONELLA TYPHIMURIUM, Strain/Indicator: TA100, Metabolic Activation: NONE, Method: HOST-MEDIATED inactive; negative | [3] inactive; negative | [4] inactive; negative | Test System: AMES SALMONELLA TYPHIMURIUM, Strain/Indicator: TA100, Metabolic Activation: RAT, LIVER, S-9, AROCLOR 1254 (10%), Method: STANDARD PLATE inactive; negative | [5] inactive; negative | Test System: AMES SALMONELLA TYPHIMURIUM, Strain/Indicator: TA1535, Metabolic Activation: HAMSTER, LIVER, S-9, AROCLOR 1254 (10%), Method: STANDARD PLATE inactive; negative | Test System: AMES SALMONELLA TYPHIMURIUM, Strain/Indicator: TA1535, Metabolic Activation: HAMSTER, LIVER, S-9, AROCLOR 1254, Method: PREINCUBATION inactive; negative | Test System: AMES SALMONELLA TYPHIMURIUM, Strain/Indicator: TA1535, Metabolic Activation: NONE, Method: STANDARD PLATE inactive; negative | Test System: AMES SALMONELLA TYPHIMURIUM, Strain/Indicator: TA1535, Metabolic Activation: RAT, LIVER, S-9, AROCLOR 1254 (10%), Method: STANDARD PLATE inactive; negative | Test System: AMES SALMONELLA TYPHIMURIUM, Strain/Indicator: TA1535, Metabolic Activation: RAT, LIVER, S-9, AROCLOR 1254, Method: PREINCUBATION inactive; negative | Test System: AMES SALMONELLA TYPHIMURIUM, Strain/Indicator: TA1537, Metabolic Activation: HAMSTER, LIVER, S-9, AROCLOR 1254 (10%), Method: STANDARD PLATE inactive; negative | Test System: AMES SALMONELLA TYPHIMURIUM, Strain/Indicator: TA1537, Metabolic Activation: HAMSTER, LIVER, S-9, AROCLOR 1254, Method: PREINCUBATION inactive; negative | Test System: AMES SALMONELLA TYPHIMURIUM, Strain/Indicator: TA1537, Metabolic Activation: NONE, Method: PREINCUBATION inactive; negative | Test System: AMES SALMONELLA TYPHIMURIUM, Strain/Indicator: TA1537, Metabolic Activation: NONE, Method: STANDARD PLATE inactive; negative | Test System: AMES SALMONELLA TYPHIMURIUM, Strain/Indicator: TA1537, Metabolic Activation: RAT, LIVER, S-9, AROCLOR 1254 (10%), Method: STANDARD PLATE inactive; negative | Test System: AMES SALMONELLA TYPHIMURIUM, Strain/Indicator: TA1537, Metabolic Activation: RAT, LIVER, S-9, AROCLOR 1254, Method: PREINCUBATION inactive; negative | Test System: AMES SALMONELLA TYPHIMURIUM, Strain/Indicator: TA1538, Metabolic Activation: HAMSTER, LIVER, S-9, AROCLOR 1254 (10%), Method: STANDARD PLATE inactive; negative | Test System: AMES SALMONELLA TYPHIMURIUM, Strain/Indicator: TA1538, Metabolic Activation: NONE, Method: STANDARD PLATE inactive; negative | Test System: AMES SALMONELLA TYPHIMURIUM, Strain/Indicator: TA1538, Metabolic Activation: RAT, LIVER, S-9, AROCLOR 1254 (10%), Method: STANDARD PLATE inactive; negative | Test System: CHO/HGPRT, Strain/Indicator: CHO/GIEMSA, Metabolic Activation: RAT, LIVER, S-9, AROCLOR 1254, Method: STANDARD PLATE inactive; negative | Test System: E. COLI, Strain/Indicator: WP2, Metabolic Activation: NONE, Method: HOST-MEDIATED inactive; negative | Test System: Mouse lymphoma, Strain/Indicator: L5178Y (tk+/tk-), Metabolic Activation: None, Method: Suspension/plate inactive; negative
active: Test System: AMES SALMONELLA TYPHIMURIUM, Strain/Indicator: TA1535, Metabolic Activation: NONE, Method: PREINCUBATION active; positive | Test System: CHO/HGPRT, Strain/Indicator: CHO/GIEMSA, Metabolic Activation: NONE, Method: STANDARD PLATE active; positive | Test System: Mouse lymphoma, Strain/Indicator: L5178Y (tk+/tk-), Metabolic Activation: Rat, Liver, S-9, Aroclor 1254, Method: Suspension/plate active; equivocal (previously evaluated positive)

CCOc1ccc(C(C)(C)C)cc1NC(=O)C(=O)Nc1ccccc1CC
inactive: Test System: AMES SALMONELLA TYPHIMURIUM, Strain/Indicator: TA97, Metabolic Activation: NONE, Method: STANDARD PLATE inactive; negative | Test System: AMES SALMONELLA TYPHIMURIUM, Strain/Indicator: TA97, Metabolic Activation: S-9, Method: STANDARD PLATE inactive; negative | [2] inactive; negative | Test System: AMES SALMONELLA TYPHIMURIUM, Strain/Indicator: TA98, Metabolic Activation: S-9, Method: STANDARD PLATE inactive; negative | [4] inactive; negative | Test System: AMES SALMONELLA TYPHIMURIUM, Strain/Indicator: TA100, Metabolic Activation: S-9, Method: STANDARD PLATE inactive; negative | Test System: AMES SALMONELLA TYPHIMURIUM, Strain/Indicator: TA102, Metabolic Activation: NONE, Method: STANDARD PLATE inactive; negative | Test System: AMES SALMONELLA TYPHIMURIUM, Strain/Indicator: TA102, Metabolic Activation: S-9, Method: STANDARD PLATE inactive; negative | Test System: E.COLI, Strain/Indicator: WP2 (PKM101), Metabolic Activation: NONE, Method: STANDARD PLATE inactive; negative | Test System: E.COLI, Strain/Indicator: WP2 (PKM101), Metabolic Activation: S-9, Method: STANDARD PLATE inactive; negative

ClC(Cl)=C(Cl)/C(Cl)=C(\Cl)SCc1ccccc1
inactive: [3] inactive; negative
active: [5] active; positive
